Laboratory results: patent US7868026B2, “Therapeutic compounds” (Pfizer Inc., priority 2005, dated 2011)
Where two headings read alike, the source gives them in different places.

Legend:
Type in all cases: biochemical
[1] = target: T1, CYP3A4 (Homo sapiens, UniProt P08684); experiment: Determination of compound Kiapp against recombinant CYP3A4 enzyme (BFC fluorescent substrate)
Method in brief: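 Recombinant CYP3A4 (5.5 or 8 nM, with or without b5 depending on source) pre-incubated with inhibitor ≥30 min at room temperature in 100 mM sodium phosphate pH 7.0, 5 mM TCEP, 2% DMF. Reaction started with 200 uM NADPH and 5 uM BFC; initial fluorescence rates over 5 min fitted to Morrison tight-binding (non-partial) or Szedlacsek (partial) equations for Kiapp.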

[2] = target: T1, CYP3A4; experiment: Determination of IC50 against CYP3A4 by measurement of inhibition of testosterone metabolism (human liver microsomes, 6-β-OH-testosterone by LC-MS/MS); set-up: 0.1 mg/mL human liver microsomes; details: read-out: IC50 (Testo.)
Method in brief: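 Human liver microsomes (0.1 mg/mL) incubated with 25 μM testosterone and 1 mM NADPH in 100 mM potassium phosphate, pH 7.4, for eight minutes. 6-β-OH-testosterone measured by LC-MS/MS in MRM mode against an internal standard and quantified from a metabolite standard curve.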

[3] = target: T1, CYP3A4; experiment: Determination of IC50 against CYP3A4 by measurement of inhibition of midazolam metabolism (human liver microsomes, 1-hydroxymidazolam by LC-MS/MS); set-up: 0.1 mg/mL human liver microsomes; details: 2 μM midazolam, 0.1 mg/mL human liver microsomes
Method in brief: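 Human liver microsomes (0.1 mg/mL) incubated 8 min with 2 μM midazolam and 1 mM NADPH in 100 mM potassium phosphate, pH 7.4. 1-Hydroxymidazolam quantified by LC-MS/MS (MRM) as peak area ratio to internal standard against a metabolite standard curve.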

[4] = Baculo. enzyme preparation, read-out: Kiapp (BFC, Baculo.)
[5] = Super. enzyme preparation, read-out: Kiapp (BFC, Super.)

T1 sequence (P08684 whole entry): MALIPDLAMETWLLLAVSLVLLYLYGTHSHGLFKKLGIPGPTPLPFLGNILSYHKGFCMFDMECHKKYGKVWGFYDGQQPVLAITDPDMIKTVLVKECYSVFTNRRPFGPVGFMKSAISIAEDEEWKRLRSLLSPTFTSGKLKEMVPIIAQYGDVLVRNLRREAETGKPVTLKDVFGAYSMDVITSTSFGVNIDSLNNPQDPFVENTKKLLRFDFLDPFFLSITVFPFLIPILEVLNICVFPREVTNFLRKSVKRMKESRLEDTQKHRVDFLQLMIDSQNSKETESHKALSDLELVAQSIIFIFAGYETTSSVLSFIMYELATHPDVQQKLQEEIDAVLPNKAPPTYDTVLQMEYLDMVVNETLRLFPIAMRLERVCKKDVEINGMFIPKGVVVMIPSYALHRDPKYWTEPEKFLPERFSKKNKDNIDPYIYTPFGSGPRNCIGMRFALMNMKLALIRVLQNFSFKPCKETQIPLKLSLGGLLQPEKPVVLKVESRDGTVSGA

`O=C(NCCCc1ccccn1)c1ccccc1S(=O)(=O)Nc1cccnc1` [Example 69, 2-[(pyridin-3-ylamino)sulfonyl]-N-(3-pyridin-2-ylpropyl)benzamide] was tested, and the Ki [1, 4] was > 1000 nM, the IC50 [2] was 179 nM and the IC50 [3] was 105 nM.

A Ki [1, 4] of 181 nM, a Ki [1, 5] of 44.9 nM and an IC50 [2] of 64 nM were found for `CN(Cc1ccccc1)C(=O)c1ccccc1S(=O)(=O)N(C)c1cccnc1` [Example 355, N-benzyl-N-methyl-2-{[methyl(pyridin-3-yl)amino]sulfonyl}benzamide] in this work. It also gave an IC50 [3] of 63 nM.

A Ki [1, 4] of 215 nM, a Ki [1, 5] of 60.7 nM and an IC50 [2] of 29 nM were found for `COc1cncc(NS(=O)(=O)c2ccccc2C(=O)NCC(C)(C)C)c1` [Example 380, N-(2,2-dimethylpropyl)-2-{[(5-methoxypyridin-3-yl)amino]sulfonyl}benzamide] in this work. It also gave an IC50 [3] of 21 nM.

A Ki [1, 4] of 246 nM, a Ki [1, 5] of 200 nM and an IC50 [2] of 289 nM were found for `COc1cncc(NS(=O)(=O)c2ccc(OCCN3CCNCC3)cc2C(=O)N(C)C(C)C)c1` [Example 242, N-isopropyl-2-{[(5-methoxypyridin-3-yl)amino]sulfonyl}-N-methyl-5-(2-piperazin-1-ylethoxy)benzamide] in this work. The IC50 [3] was 254 nM.

A Ki [1, 4] of 743 nM, a Ki [1, 5] of 20.9 nM and an IC50 [2] of 25 nM were found for `O=C(NCc1ccc2c(c1)CCO2)c1ccccc1S(=O)(=O)Nc1cccnc1` [Example 82, N-(2,3-dihydro-1-benzofuran-5-ylmethyl)-2-[(pyridin-3-ylamino)sulfonyl]benzamide] in this work. The IC50 [3] was 28 nM.

A Ki [1, 4] of 75.2 nM, a Ki [1, 5] of 10.9 nM and an IC50 [2] of 14 nM were found for `CCCN(CC1CC1)C(=O)c1ccccc1S(=O)(=O)Nc1cncc(C)c1` [Example 331, N-(cyclopropylmethyl)-2-{[(5-methylpyridin-3-yl)amino]sulfonyl}-N-propylbenzamide] in this work. For the same compound, the IC50 [3] was 12 nM.

A Ki [1, 4] of 54.7 nM, a Ki [1, 5] of 5.4 nM and an IC50 [2] of 11 nM were found for `COc1cncc(NS(=O)(=O)c2ccccc2C(=O)NCCc2ccccc2OC)c1` [Example 263, N-[2-(2-methoxyphenyl)ethyl]-2-{[(5-methoxypyridin-3-yl)amino]sulfonyl}benzamide] in this work. It also gave an IC50 [3] of 9 nM.

A Ki [1, 4] of 48.4 nM, a Ki [1, 5] of 88.9 nM and an IC50 [2] of 108 nM were found for `COc1cncc(NS(=O)(=O)c2ccc(OCCN3CCOCC3)cc2C(=O)N(C)C(C)C)c1` [Example 247, N-isopropyl-2-{[(5-methoxypyridin-3-yl)amino]sulfonyl}-N-methyl-5-(2-morpholin-4-ylethoxy)benzamide] in this work. The IC50 [3] was 54 nM.

A Ki [1, 4] of 20.3 nM, a Ki [1, 5] of 6 nM and an IC50 [2] of 8 nM were found for `COc1cncc(NS(=O)(=O)c2ccccc2C(=O)NCc2ccc(F)cc2F)c1` [Example 212, N-(2,4-difluorobenzyl)-2-{[(5-methoxypyridin-3-yl)amino]sulfonyl}benzamide] in this work. The IC50 [3] was < 3 nM.

A Ki [1, 4] of 378 nM, a Ki [1, 5] of 22.5 nM and an IC50 [2] of 51.5 nM were found for `CC(C)CCNC(=O)c1ccccc1S(=O)(=O)Nc1cccnc1` [Example 42, N-(3-methylbutyl)-2-[(pyridin-3-ylamino)sulfonyl]benzamide] in this work. The IC50 [3] was 35.9 nM.

A Ki [1, 4] of 57.3 nM, a Ki [1, 5] of 16.1 nM and an IC50 [2] of 19 nM were found for `CCC(C)CNC(=O)c1ccccc1S(=O)(=O)Nc1cncc(OC)c1` (stereo not drawn) [Example 208, 2-{[(5-methoxypyridin-3-yl)amino]sulfonyl}-N-(2-methylbutyl)benzamide] in this work. It also gave an IC50 [3] of 9.5 nM.

A Ki [1, 4] of 49.4 nM, a Ki [1, 5] of 1.3 nM and an IC50 [2] of 8 nM were found for `Cc1cncc(NS(=O)(=O)c2ccccc2C(=O)NCc2ccc(C)c(F)c2)c1` [Example 157, N-(3-fluoro-4-methylbenzyl)-2-{[(5-methylpyridin-3-yl)amino]sulfonyl}benzamide] in this work. The IC50 [3] was 8 nM.

A Ki [1, 4] of 63 nM, a Ki [1, 5] of 13.1 nM and an IC50 [2] of 15 nM were found for `Cc1cncc(NS(=O)(=O)c2ccccc2C(=O)NCc2cccc(F)c2)c1` [Example 342, N-(3-fluorobenzyl)-2-{[(5-methylpyridin-3-yl)amino]sulfonyl}benzamide] in this work. It also gave an IC50 [3] of 11 nM.

A Ki [1, 4] of 84 nM, a Ki [1, 5] of 5 nM and an IC50 [2] of 11 nM were found for `Cc1cncc(NS(=O)(=O)c2ccccc2C(=O)NCc2ccc(F)c(C)c2)c1` [Example 156, N-(4-fluoro-3-methylbenzyl)-2-{[(5-methylpyridin-3-yl)amino]sulfonyl}benzamide] in this work. It also gave an IC50 [3] of 13 nM.

A Ki [1, 4] of 844 nM, a Ki [1, 5] of 62 nM and an IC50 [2] of 247 nM were found for `O=C(c1ccccc1S(=O)(=O)Nc1cccnc1)N1CCCCC1` [Example 67, 2-(piperidin-1-ylcarbonyl)-N-pyridin-3-ylbenzenesulfonamide] in this work. For the same compound, the IC50 [3] was 110 nM.

With `CN(C)CCNC(=O)c1ccccc1S(=O)(=O)Nc1cccnc1` [Example 37] the Ki [1, 4] was > 1000 nM, the IC50 [2] was > 750 nM and the IC50 [3] was > 750 nM.

With `COc1cncc(NS(=O)(=O)c2ccccc2C(=O)NCCN2CCCC2)c1` [Example 386, 2-{[(5-methoxypyridin-3-yl)amino]sulfonyl}-N-(2-pyrrolidin-1-ylethyl)benzamide] the Ki [1, 4] was > 1000 nM, the Ki [1, 5] was 174 nM and the IC50 [2] was > 750 nM. For the same compound, the IC50 [3] was > 750 nM.

A Ki [1, 4] of 376 nM, a Ki [1, 5] of 68.5 nM and an IC50 [2] of 99 nM were found for `COC[C@@H]1[C@@H]2C[C@@H]3[C@H]1CN(C(=O)c1ccccc1S(=O)(=O)Nc1cncc(OC)c1)[C@@H]3C2` [Example 194, 2-{[(3R,3aR,5R,6aR,7R)-7-(methoxymethyl)hexahydro-3,5-methanocyclopenta[b]pyrrol-1(2H)-yl]carbonyl}-N-(5-methoxypyridin-3-yl)benzenesulfonamide] in this work. It also gave an IC50 [3] of 73 nM.

A Ki [1, 4] of 116 nM, an IC50 [2] of 36 nM and an IC50 [3] of 17 nM were found for `CN(CCc1ccccc1)C(=O)c1ccccc1S(=O)(=O)Nc1cccnc1` [Example 68, N-methyl-N-(2-phenylethyl)-2-[(pyridin-3-ylamino)sulfonyl]benzamide] in this work.

In the case of `COc1cncc(NS(=O)(=O)c2ccccc2C(=O)N2CCC(OC)CC2)c1` [Example 366, 2-[(4-methoxypiperidin-1-yl)carbonyl]-N-(5-methoxypyridin-3-yl)benzenesulfonamide], the Ki [1, 4] is reported as 553 nM, the Ki [1, 5] is reported as 65.1 nM and the IC50 [2] is reported as > 750 nM. It also gave an IC50 [3] of 253 nM.

For `C[C@@H]1CN(C(=O)c2ccccc2S(=O)(=O)Nc2cccnc2)C[C@H](C)O1` [Example 27, 2-{[(2R,6S)-2,6-dimethylmorpholin-4-yl]carbonyl}-N-pyridin-3-ylbenzenesulfonamide], the Ki [1, 4] was > 1000 nM, the IC50 [2] was > 750 nM and the IC50 [3] was 658 nM.

For `COc1cncc(NS(=O)(=O)c2ccccc2C(=O)NCCO)c1` [Example 176, N-(2-hydroxyethyl)-2-{[(5-methoxypyridin-3-yl)amino]sulfonyl}benzamide], the Ki [1, 4] was > 1000 nM, the Ki [1, 5] was 625 nM and the IC50 [2] was > 750 nM. It also gave an IC50 [3] of 406 nM.

`CC(C)(CO)NC(=O)c1ccccc1S(=O)(=O)Nc1cccnc1` [Example 39, N-(2-hydroxy-1,1-dimethylethyl)-2-[(pyridin-3-ylamino)sulfonyl]benzamide] was tested, and the Ki [1, 4] was > 1000 nM, the IC50 [2] was > 500 nM and the IC50 [3] was > 500 nM.

A Ki [1, 4] of 85.1 nM, a Ki [1, 5] of 21.7 nM and an IC50 [2] of 20 nM were found for `CN(CC1CCCC1)C(=O)c1ccccc1S(=O)(=O)Nc1cccnc1` [Example 324, N-(cyclopentylmethyl)-N-methyl-2-[(pyridin-3-ylamino)sulfonyl]benzamide] in this work. It also gave an IC50 [3] of 11 nM.

A Ki [1, 4] of 16.9 nM, a Ki [1, 5] of 3.4 nM and an IC50 [2] of 16 nM were found for `COc1cncc(NS(=O)(=O)c2ccccc2C(=O)N[C@H](CO)CC2CCCCC2)c1` [Example 190, N-[(1S)-2-cyclohexyl-1-(hydroxymethyl)ethyl]-2-{[(5-methoxypyridin-3-yl)amino]sulfonyl}benzamide] in this work. For the same compound, the IC50 [3] was 7 nM.

For `CCCNC(=O)c1ccccc1S(=O)(=O)Nc1cccnc1` [Example 50, N-propyl-2-[(pyridin-3-ylamino)sulfonyl]benzamide], the Ki [1, 4] was > 1000 nM, the IC50 [2] was 371 nM and the IC50 [3] was 254 nM.

A Ki [1, 4] of 13.7 nM, a Ki [1, 5] of 9.1 nM and an IC50 [2] of 11 nM were found for `COc1ccncc1NS(=O)(=O)c1ccccc1C(=O)NCCc1ccccc1Cl` [Example 220, N-[2-(2-chlorophenyl)ethyl]-2-{[(4-methoxypyridin-3-yl)amino]sulfonyl}benzamide] in this work. It also gave an IC50 [3] of 6 nM.

A Ki [1, 4] of 30.2 nM, a Ki [1, 5] of 5.25 nM and an IC50 [2] of 16 nM were found for `COc1ccncc1NS(=O)(=O)c1ccccc1C(=O)N(C)Cc1ccc(F)c(F)c1` [Example 256, N-(3,4-difluorobenzyl)-2-{[(4-methoxypyridin-3-yl)amino]sulfonyl}-N-methylbenzamide] in this work. The IC50 [3] was 14.5 nM.

A Ki [1, 4] of 203 nM, a Ki [1, 5] of 24.3 nM and an IC50 [2] of 37 nM were found for `Cc1cncc(NS(=O)(=O)c2ccccc2C(=O)NCCOc2ccccc2)c1` [Example 229, 2-{[(5-methylpyridin-3-yl)amino]sulfonyl}-N-(2-phenoxyethyl)benzamide] in this work. The IC50 [3] was 16 nM.

A Ki [1, 4] of 268 nM, a Ki [1, 5] of 58.1 nM and an IC50 [2] of 145 nM were found for `CCOc1cncc(NS(=O)(=O)c2ccccc2C(=O)NCC2CC2)c1` [Example 293, N-(cyclopropylmethyl)-2-{[(5-ethoxypyridin-3-yl)amino]sulfonyl}benzamide] in this work. It also gave an IC50 [3] of 81 nM.
